Data taken from PubChem BioAssay AID248 (DTP/NCI, 2004).
Inconclusive results and toxic doses are left out. No stated cut-off is given here; in the data, active means T/C of 150% or more; inactive means T/C below 125%.

Tested on: L1210 leukemia ip in BDF1 mice, survival T/C
Assay: NCI In Vivo Anticancer Drug Screen. Data for tumor model L1210 Leukemia (intraperitoneal) in B6D2F1 (BDF1) mice
Details: endpoint: mean survival time, higher = longer survival
Outline: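 Mice bearing the transplanted tumor received compound or vehicle. Survival of the treated group was divided by that of the vehicle-treated control group to give the ratio.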

Measured: T/C

CCCCCCCCCCCCCCCCCc1nc(N)nc(N(C)C)n1
inactive: dose: 25.0 mg/kg/injection, schedule: Q04DX003 (ip), vehicle: saline with Tween-80 97 % of control | dose: 50.0 mg/kg/injection, schedule: Q04DX003 (ip), vehicle: saline with Tween-80 96 % of control | dose: 100.0 mg/kg/injection, schedule: Q04DX003 (ip), vehicle: saline with Tween-80 97 % of control

CCCCC(=O)N1CCCCCC1
inactive: dose: 100.0 mg/kg/injection, schedule: Q04DX002 (ip), vehicle: saline with Tween-80 105 % of control | dose: 200.0 mg/kg/injection, schedule: Q04DX002 (ip), vehicle: saline with Tween-80 87 % of control

O=[N+]([O-])c1ccc2c(N=Nc3c(O)ccc4ccccc34)c(O)cc(S(=O)(=O)O)c2c1
inactive: dose: 50.0 mg/kg/injection, schedule: Q04DX003 (ip), vehicle: saline 98 % of control | dose: 100.0 mg/kg/injection, schedule: Q01DX001 (ip), vehicle: saline 92 % of control | dose: 200.0 mg/kg/injection, schedule: Q01DX001 (ip), vehicle: saline 92 % of control | dose: 200.0 mg/kg/injection, schedule: Q04DX003 (ip), vehicle: saline 92 % of control

CN=C1N[N+]2=CCCCC2S1 (centres undefined)
inactive: dose: 25.0 mg/kg/injection, schedule: Q04DX002 (ip), vehicle: saline 86 % of control | dose: 40.0 mg/kg/injection, schedule: Q01DX009 (ip), vehicle: saline 95 % of control | dose: 50.0 mg/kg/injection, schedule: Q04DX002 (ip), vehicle: saline 111 % of control | dose: 60.0 mg/kg/injection, schedule: Q01DX009 (ip), vehicle: saline 104 % of control | dose: 80.0 mg/kg/injection, schedule: Q01DX009 (ip), vehicle: saline 107 % of control | dose: 100.0 mg/kg/injection, schedule: Q04DX002 (ip), vehicle: saline 99 % of control

c1cc2c(c(NC3=NCCN3)c1)CCCC2
inactive: dose: 12.5 mg/kg/injection, schedule: Q01DX009 (ip), vehicle: saline with Tween-80 98 % of control | dose: 25.0 mg/kg/injection, schedule: Q01DX009 (ip), vehicle: saline with Tween-80 93 % of control | dose: 50.0 mg/kg/injection, schedule: Q01DX009 (ip), vehicle: saline with Tween-80 95 % of control

O=c1c(N=Nc2ccc(Cl)cc2)c(O)n(-c2ccc(I)cc2)c(=S)n1-c1ccccc1
inactive: dose: 100.0 mg/kg/injection, schedule: Q01DX001 (ip), vehicle: Klucel (hydroxypropylcellulose) (HPC) 93 % of control | dose: 200.0 mg/kg/injection, schedule: Q01DX001 (ip), vehicle: Klucel (hydroxypropylcellulose) (HPC) 104 % of control | dose: 400.0 mg/kg/injection, schedule: Q01DX001 (ip), vehicle: Klucel (hydroxypropylcellulose) (HPC) 102 % of control

CCCCCc1[nH]c(=O)[nH]c(=O)c1N=Nc1ccccc1
inactive: dose: 100.0 mg/kg/injection, schedule: Q01DX001 (ip), vehicle: saline with Tween-80 98 % of control | dose: 200.0 mg/kg/injection, schedule: Q01DX001 (ip), vehicle: saline with Tween-80 97 % of control | dose: 400.0 mg/kg/injection, schedule: Q01DX001 (ip), vehicle: saline with Tween-80 100 % of control
